Measured values from US9284297B2, “Halofuginone analogs for inhibition of tRNA synthetases and uses thereof” (President and Fellows of Harvard College, priority 2008, dated 2016).

Experiments:
[1] = tested on: human CD4+ T cells (CD4+ CD45RO+); assay: IL-17 and IFNγ expression by human memory CD4+ T cells co-cultured with monocytes; format: cell-based; conditions: 100 nM HF; expanded for 6 days
Method: FIG. 5F is a set of FACS analyses of purified primary human memory T cells (CD4^+ CD45RO^+) activated in co-culture with CD14^+ monocytes and treated with DMSO, 100 nM HF or 100 nM MAZ1310. T cells were expanded for 6 days and intracellular cytokine expression was determined following restimulation with PMA plus ionomycin.
In light of reports that IL-17 expression may be differentially regulated in murine versus human T cells (Manel et al., Nat. Immunol. 9:641, 2008; Wilson et al., Nat. Immunol. 8:950, 2007; Acosta-Rodriguez et al., Nat. Immunol. 8:942, 2007), HF modulation of IL-17 expression by human CD4^+ T cells was investigated. […] Therefore, HF selectively limits IL-17 expression in both human and mouse T cells.
Primary murine T and B cells were purified by cell sorting. CD4^+ CD25^− T cells were positively selected using CD4 dynabeads and detachabeads (Dynal, Oslo, Norway) per manufacturers instructions followed by nTreg depletion using a CD25 microbead kit (Miltenyi biotech, Auburn, Calif.). Naïve (CD4^+ CD62Lhi CD44lo Foxp3gfp- or CD4^+ CD62Lhi CD44lo CD25^−) T cells were purified from Foxp3gfp or Foxp3ko mice, respectively, by FACS sorting. […] Resting human CD4^+ T cells were isolated from PBMC of healthy human donors using Dynal CD4 Positive Isolation Kit (Invitrogen, Carlsbad, Calif.) as previously described (Sundrud et al., Blood 106:3440, 2005). […]

[2] = tested on: Th17 differentiation of CD4+ CD25− T cells; assay: Th17 differentiation of CD4+ CD25− T cells (IL-17+ IFNγ− cells, intracellular cytokine staining)
[3] = tested on: eIF2α phosphorylation and AAR-associated transcripts (Asns, Gpt2, eIF4Ebp1) in splenocytes; assay: AAR activation in splenocytes of HF-injected mice; format: in vivo; conditions: i.p. 2.5 mg HF; spleens harvested 6 hours post injection
Method: FIG. 18F, left panel, depicts western blot analysis of protein from cells of wild-type mice injected i.p. with vehicle (DMSO) or 2.5 mg HF. Spleens were harvested 6 hours post injection, red blood cells were removed by NH4Cl lysis buffer and immunoblotting for phosphorylated or total eIF2a was performed on whole cell extracts. FIG. 20F, right panel is a graph depicting levels of AAR-associated gene expression (Asns, Gpt2, eIF4Ebp1) analyzed by quantitative real-time PCR using cDNA from splenocytes of mice treated with DMSO or HF as above. Expression of AAR-associated transcripts were normalized to Hprt levels and data are presented as mean relative expression from duplicate samples±SD. All data represent 2-3 similar experiments.
HF-mediated protection from adjuvant-driven EAE was accompanied by a reduction in T cell-derived IL-17-expression, both in peripheral lymph nodes prior to disease onset and in CNS tissue during active disease (FIG. 18E), as well as an overall reduction in CD4^+ T cell infiltrates into the CNS (FIG. 19).

[4] = biological target: T1, methionyl tRNA synthetase (Oryctolagus cuniculus, UniProt G1SSX5); assay: Incorporation of 35S-labeled methionine into tRNA in rabbit reticulocyte lysate; format: biochemical; conditions: crude in vitro translation system
T1 construct: from tissue; host or cells: rabbit reticulocyte lysate
T1 sequence (G1SSX5 1-900): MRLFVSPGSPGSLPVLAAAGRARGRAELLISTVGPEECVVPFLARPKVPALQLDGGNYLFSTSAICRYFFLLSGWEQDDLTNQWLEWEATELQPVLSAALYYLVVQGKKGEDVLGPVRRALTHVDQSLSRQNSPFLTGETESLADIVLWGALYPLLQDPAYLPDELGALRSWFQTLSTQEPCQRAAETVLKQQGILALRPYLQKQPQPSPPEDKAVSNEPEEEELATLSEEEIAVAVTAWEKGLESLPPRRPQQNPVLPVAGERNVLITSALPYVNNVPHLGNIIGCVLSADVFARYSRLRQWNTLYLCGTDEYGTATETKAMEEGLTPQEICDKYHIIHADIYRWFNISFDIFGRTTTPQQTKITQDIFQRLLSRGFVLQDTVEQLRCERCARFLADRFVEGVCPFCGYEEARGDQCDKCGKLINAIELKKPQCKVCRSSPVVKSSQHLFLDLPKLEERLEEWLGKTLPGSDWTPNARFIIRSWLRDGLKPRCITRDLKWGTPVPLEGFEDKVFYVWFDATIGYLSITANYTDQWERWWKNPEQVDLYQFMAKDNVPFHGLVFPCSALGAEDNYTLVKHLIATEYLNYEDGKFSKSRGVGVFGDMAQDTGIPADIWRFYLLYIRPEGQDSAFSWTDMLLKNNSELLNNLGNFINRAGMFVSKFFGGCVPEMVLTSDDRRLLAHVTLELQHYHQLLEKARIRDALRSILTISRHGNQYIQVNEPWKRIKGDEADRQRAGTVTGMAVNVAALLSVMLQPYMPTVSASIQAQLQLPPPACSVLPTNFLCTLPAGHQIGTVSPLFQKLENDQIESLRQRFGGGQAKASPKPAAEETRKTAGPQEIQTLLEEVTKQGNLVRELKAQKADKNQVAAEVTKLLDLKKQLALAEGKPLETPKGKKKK
Method: Total RNA was extracted with acidic phenol-chloroform and tRNA was isolated using miRVANA microRNA isolation kit. Radioisotope incorporation into tRNA was measured in a scintillation counter.

Question: With O=C(CC1NCCCC1O)Cn1cnc2cc(Br)c(Cl)cc2c1=O (stereo not drawn) [Compound 1, 7-bromo-6-chloro-3-[3-(3-hydroxy-2-piperidinyl)-2-oxopropyl]-4(3H)-quinazolinone] as the compound, how does the “IFNγ expression by human T cells” value [1] read?
Answer: essentially unaffected

Question: What about the “IL-17 expression by human T cells” value [1] of the same compound?
Answer: greatly reduced both the percentage of human T cells expressing IL-17 and the amount of IL-17 produced

Question: And the “rescue of inhibited Th17 differentiation by added amino acids” value ([2]; 10 nM halofuginone, 1 mM of the indicated amino acids)?
Answer: Proline, and no other added amino acid, rescues the inhibition of Th17 differentiation

Question: What about the IC50 ([2]; Mus musculus, T-cell, 96 h, read-out: IC50, Th17 differentiation) of the same compound?
Answer: 3.6 nM

Question: What about the “eIF2α phosphorylation and AAR-associated transcripts in splenocytes ex vivo” value [3] of the same compound?
Answer: increased eIF2α phosphorylation and expression of AAR-associated transcripts

Question: And the “inhibition of 35S methionine incorporation into tRNA” value [4]?
Answer: not a different tRNA synthetase (methionyl tRNA synthetase)
